What was measured:
COS-7 cells = assay: Ouabain toxicity assay, transiently transfected COS-7 cells, cell viability; type: cell-based; conditions: wild type COS-7, 10 μM ouabain
Experimental: COS-7 cells (ATCC, Manassas, Va.) were cultured and transfected as above. After 48 h incubation in 10 μM ouabain, the cells were washed twice in PBS (Gibco) and incubated for 15 min in 0.025% porcine trypsine in saline (Sigma). The trypsin was inactivated by FBS addition. The cells were re-incubated in 10 μM ouabain. Cell viability was documented following 48 h incubation.

HeLa cells [1] = assay: Ouabain toxicity assay, transiently transfected HeLa cells, cell viability; type: cell-based, human; conditions: 10 μM ouabain
Experimental: HeLa cells (ATCC, Manassas, Va.) were cultured in DMEM Glutamax with 10% heat-inactivated fetal bovine serum (FBS). For transfections, Fugene 6 reagent (Roche Boehringer Mannheim, Germany) was used according to manufacturer's description. Briefly, 2 μg of plasmid DNA per 10^5 cells were complexed with 5 μl of the reagent in a 100 μl volume of cell culture medium and added to cells after 15 min of incubation. After 24 h, ouabain was added to each well to a final concentration of 10 μM. Cell viability was documented following 24 h incubation.
(§1) For transfections, Fugene 6 reagent (Roche Boeringer Mannheim, Germany) was used according to the manufacturer's instructions. Briefly, 2 μg of plasmid DNA per 10^5 cells were complexed with 5 μl of the reagent in a 100 μl volume of cell culture medium DMEM Glutamax and added to cells after 15 min of incubation. Ouabain (Sigma, St. Louis, Mo., USA) was dissolved in DMEM as a stock solution of 10 mM. For selection experiments 10-500 μM was used. Ouabain was added to the cells at 24 h after transfection. At 48 hours post transfection the cells were trypsinized and transferred to ouabain-free medium. Cell survival was quantified spectrophoto-metrically using the WST-1 cell proliferation reagent (Roche) according to the manufacturer's instructions.

HeLa cells [2] = assay: Ouabain dose response assay in transfected HeLa cells, WST-1 cell proliferation reagent; type: cell-based, human; conditions: 10-500 μM ouabain, 24 hours
Experimental: as §1

C[C@@H]1O[C@@H](O[C@H]2C[C@@H](O)[C@]3(CO)[C@H]4[C@H](O)C[C@]5(C)[C@@H](C6=CC(=O)OC6)CC[C@]5(O)[C@@H]4CC[C@]3(O)C2)[C@H](O)[C@H](O)[C@H]1O [ouabain]
ouabain induced cell death of wild type cells (COS-7 cells): induces cell death
ouabain induced cell death of wild type cells (HeLa cells [1]): induces cell death
effect of ouabain on control and un-transfected cells (WST-1) (HeLa cells [2]): eliminated

From patent publication US7645603B2, “Cells having cardiac glycoside resistance” (Avaris AB, priority 2003, dated 2010)
